US20050014722A1, “Process for preparing n-acylated lysophosphatidylcholine and pharmaceutical composition for treatment of metabolic bone disease comprising said compounds” (priority 2001, published 2005)

Assays:
[1] = test system: differentiation of osteoclasts in co-culture of bone marrow cells and osteoblasts; assay: Osteoclast differentiation in co-culture of osteoblasts and bone marrow cells (TRAP staining); format: cell-based, ICR mice; conditions: for Inhibitory activity on osteoclast differentiation in co-culture of bone marrow cells and osteoblasts: 4 μM; for TRAP-positive osteoclast cell number: co-culture, vitamin D3 and PGE2, 6 days, control 397+36.75
Description: (§1) Primary osteoblasts, bone marrow cells and osteoclast precursor cells were cultured in α-Minimum Essential Medium (α-MEM, Gibco BRL) supplemented with 10% (v/v) fetal bovine serum (Gibco BRL), and 1× antibiotics containing penicillin/streptomycin (Gibco BRL).
Until now, osteoclast cell lines have not been established, making it difficult to study differentiation of osteoclasts. Osteoclasts originate from hematopoietic stem cells derived from bone marrow, and differentiate with the help of osteoblasts/stromal cells. For these reasons, the co-culture system of osteoblasts and bone marrow cells is used for differentiation of osteoclasts. In these Experimental Examples, a differentiation system of bone marrow cells to osteoclasts was established by co-culture of osteoblasts and bone marrow cells, and, in this system, the CHJ-0014 compound was evaluated for its inhibitory effect on differentiation of osteoclasts.
After sacrificing one-day postnatal ICR mice and disinfecting them in 70% ethanol, calvarias were collected using surgical scissors and forceps, cut into several pieces, and transferred into 3× HBSS contained in a 60-mm culture dish. 0.1% collagenase (Gibco BRL) and 0.2% dispase (Boehringer Mannheim) were added to the solution, followed by incubation at 37° C. for 15 min. The treatment of calvarias with collagenase and dispase was repeated 4 more times. From the second treatment of calvarias with collagenase and dispase, the solution was centrifuged after each treatment at 1600 rpm for 5 min to harvest cells, thereby collecting osteoblasts. The collected osteoblasts were plated onto a 100-mm culture dish at a density of about 1-2×10^6 cells, and cultured in 15 ml of α-MEM supplemented with 10% FBS for 3 days. Thereafter, the proliferated osteoblasts were aliquotted into cryo-vials, and stored in liquid nitrogen until use in co-culture of osteoblasts and bone marrow cells.
(§2) After sacrificing 6-7 week ICR female mice by cervical dislocation and disinfecting their rear legs in 70% ethanol, tibias were isolated aseptically. The isolated tibias were placed into 3× HBSS (Gibco BRL), and soft tissue was completely removed. Both ends of tibias were cut, and 1×α-MEM was injected into bone marrow and then sucked up using a 1 ml syringe, collecting bone marrow cells. After sufficient suspending by pipetting, the collected bone marrow cells were centrifuged at 1600 rpm for 5 min to harvest cells. The resulting pellet (bone marrow cells and erythrocytes) was suspended in about 15-20 ml of ACK buffer (155 mM NH4Cl, 11 mM KHCO3, 0.01 mM EDTA). After incubation for 2 min, phosphate buffer was added to the cell suspension to minimize damage to bone marrow cells and lyse erythrocytes.
(§3) Thereafter, the cell suspension was centrifuged (1600 rpm, 5 min), and the resulting cell pellet was suspended in 10% FBS-containing α-MEM.
The isolated and cultured osteoblasts and bone marrow cells were co-cultured, as follows. Bone marrow cells and osteoblasts were plated onto a 48-well plate at a density of 2×10^5 cells and 2×10^4 cells per well, respectively, and co-cultured in 10% FBS-containing x-MEM. After adding vitamin D3 (10^−8 M) and PGE 2 (Prostaglandin E 2, 10^−6 M) to the culture medium, the cells were treated with the CHJ-0014 compound at various concentrations of 1.65 μM, 3.3 μM and 6.6 μM. A co-culture group not treated with the CHJ-0014 compound was used as a control. When the culture medium was exchanged with a fresh medium after incubation for 3 days, vitamin D3 (10^−8 M) and PGE 2 (10^−6 M) were again added to the medium, and the CHJ-0014 compound was also added to the medium at the same concentrations as above.
After incubation for 6 days, the culture medium was removed, and completely differentiated osteoclasts were fixed with 10% formalin for 5 min. After removing formalin, the fixed osteoclasts were treated with 0.1% Triton X-100 for 10 sec. […]

[2] = test system: differentiation of osteoclasts in culture of bone marrow cells; assay: Osteoclast differentiation in culture of bone marrow cells induced by ODF and M-CSF (TRAP staining); format: cell-based, ICR mice; conditions: for TRAP-positive osteoclast cell number: bone marrow cells, ODF 50 ng/ml, M-CSF 30 ng/ml, control 240±44
Description: as §1, §2, §3
In this test, to evaluate this possible scenario, only bone marrow cells were treated with a recombinant ODF protein and inhibitory activity of the CHJ-0014 compound on osteoclast differentiation was investigated in culture of only bone marrow cells. Bone marrow cells, isolated according to the same method as in Experimental Example 1, were plated onto a 48-well plate at a density of 4×10^5 cells, and cultured in 10% FBS-containing α-MEM. After adding ODF (50 ng/ml) and M-CSF (30 ng/ml) to the medium, the cells were treated with the CHJ-0014 compound at various concentrations of 0.825 μM, 1.65 μM, 3.3 μM and 6.6 μM. When the culture medium was exchanged with a fresh medium after incubation for 3 days, the cells were again treated with the identical amount of ODF, M-CSF and CHJ-0014. After incubation for 6 days, the culture medium was exchanged with a fresh medium, and the cells were further cultured for 2 more days.
Completely differentiated osteoclasts were identified by TRAP staining. TRAP staining was carried out using the Leukocyte Acid Phosphatase Kit (Sigma, Cat. No. 387-A). The culture medium was removed, and completely differentiated osteoclasts were fixed with 10% formalin for 5 min. After removing formalin, the fixed osteoclasts were treated with 0.1% Trypton X-100 for 10 sec. After removing Trypton X-100, the cells were stained with a TRAP staining solution in the kit for 5 min. After eliminating the TRAP staining solution, the cells were washed with distilled water twice, dried, and TRAP-positive osteoclasts were counted under an optical microscope (×100).

[3] = test system: osteoclast precursor cells; assay: Differentiation of osteoclast precursor cells isolated from bone, ODF and M-CSF (TRAP staining); format: cell-based, ICR mice; conditions: for TRAP-positive osteoclast cell number: osteoclast precursor cells, ODF 100 ng/ml, M-CSF 30 ng/ml, day 9, control 344±43.7
Description: as §1
Osteoclast progenitors derived from bone marrow cells migrate eventually to bone, differentiate to osteoclast precursors therein, and further differentiate to active osteoclasts having bone resorption ability and participate in bone resorption. That is, osteoclast precursor cells present in bone are at a different differentiation stage from the active osteoclasts. Recently, a cytokine playing a critical role in osteoclast differentiation was identified to be ODF (also called OPGL or RANKL), and a recombinant ODF protein can be produced on a large scale, thereby facilitating osteoclast differentiation by primary cell culture.
Osteoclast precursor cells were isolated from […]. After sacrificing 5-6 week ICR female mice by cervical dislocation and disinfecting their rear legs in 70% ethanol, tibias and femurs were isolated aseptically. After removing soft tissue according to the same method as in Example 2 from the isolated tibias and femurs, 3× HBSS (Gibco BRL) was injected into bone marrow several times, thereby collecting bone marrow cells, as follows. Bone was cut into small pieces using a surgical scissor, and incubated in a collagenase solution (1 mg/ml collagenase type II, 0.05% trypsin, 4 mM EDTA, Gibco BRL) contained in a culture dish at 37° C. for 15 min. The collagenase treatment was carried out 4 more times. After being treated three times, bone pieces were further cut into a smaller size. After one more treatment with collagenase, the bone pieces were washed with 3× HBSS five times. After completely removing the enzyme solution by centrifugation, the bone pieces were suspended in pre-cooled α-MEM, and placed onto ice for 15 min. After vortexing for 1 min, an equal volume of α-MEM was added to the bone suspension, followed by incubation on ice for 15 min. The bone suspension was filtered through a sterilized mass, and the obtained cells were cultured in 10% FBS-containing α-MEM.
The isolated and cultured osteoclast precusor cells were plated onto a 48-well plate at a density of 0.5×10^6 cells. After adding ODF (100 ng/ml) and M-CSF (30 ng/ml) to the medium, the cells were treated with the CHJ-0014 compound at various concentrations of 0.825 μM, 1.65 μM, 3.3 μM and 6.6 μM. A group not treated with the CHJ-0014 compound was used as a control. When the culture medium was exchanged with a fresh medium after incubation for 3 days, the cells were again treated with the identical amount of ODF, M-CSF and CHJ-0014. On day 6 after culturing, the culture medium was exchanged with a fresh medium, according to the same method as in on day 3. On day 9, TRAP staining was carried out, and TRAP-positive osteoclasts were counted under an optical microscope (×100).

osteoblasts = assay: Cytotoxicity by MTT assay, osteoblasts; format: cell-based, ICR mice; conditions: 6.6 μM, 24 hrs
murine bone marrow cells = assay: Cytotoxicity by MTT assay, bone marrow cells; format: cell-based; conditions: 6.6 μM, 24 hrs
peritoneal macrophages = assay: Cytotoxicity by MTT assay, peritoneal macrophages; format: cell-based; conditions: 6.6 μM, 24 hrs
[4] = test system: human embryonic kidney cell line 293T; assay: Cytotoxicity by MTT assay, 293T cells; format: cell-based; conditions: 6.6 μM, 24 hrs
[5] = test system: transcription factor NF-κB; assay: NF-κB activity by EMSA (electrophoresis mobility shift assay) in osteoclasts; format: cell-based; conditions: osteoclast nuclear extract
Description: The CHJ-0014 compound was investigated for its inhibitory effect on the activity of the transcription factor NF-κB participating in osteoclast differentiation by performing EMSA (electrophoresis mobility shift assay). Osteoclasts were prepared according to the same method as in Experimental Experiment 3, and incubated in hypotonic lysis buffer (10 mM HEPES, pH 7.9, 1.5 mM MgCl2, 10 mM KCl, 0.5 mM DTT, 0.5 mM PMSF) on ice for 10 min. The osteoclast-containing solution was transferred into a microcentrifuge, supplemented with 0.1% NP40, and incubated for 15 min with occasional agitation. After centrifugation (4,000 rpm, 15 min), the resulting cell pellet was suspended in 15 μl of high salt buffer (20 mM HEPES, pH 7.9, 420 mM NaCl, 25% glycerol, 1.5 mM MgCl2, 0.2 mM EDTA, 0.5 mM PMSF, 0.5 mM DTT), and placed onto ice for 20 min. 75 μl of storage buffer (20 mM HEPES, pH 7.9, 100 mM NaCl, 20% glycerol, 0.2 mM EDTA, 0.5 mM PMSF, 0.5 mM DTT) was added to the cell suspension, and incubated with agitation for 10 sec. After centrifugation (14,000 rpm, 20 min), the resulting supernatant was subjected to protein quantitative assay. Protein assay was performed using a DC Protein Assay Kit (Bio-Rad).
A NF-κB-specific oligomer (5′-AGTTGAGGGGACTTTCCCA GGC-3′, Santa Cruz) was radiolabeled using [γ-^32P]ATP and […], and used as a probe. […]

Row | Compound | Inhibitory activity on osteoclast differentiation in co-culture of bone marrow cells and osteoblasts [1] | TRAP-positive osteoclast cell number ([1]; 1.65 μM) | TRAP-positive osteoclast cell number ([1]; 3.3 μM) | TRAP-positive osteoclast cell number ([1]; 6.6 μM) | Effect on differentiation of osteoclasts in co-culture of bone marrow cells and osteoblasts ([1]; 1.65-6.6 μM) | TRAP-positive osteoclast cell number ([2]; 0.825 μM) | TRAP-positive osteoclast cell number ([2]; 1.65 μM) | TRAP-positive osteoclast cell number ([2]; 3.3 μM) | TRAP-positive osteoclast cell number ([2]; 6.6 μM) | Effect on osteoclast differentiation induced by ODF in bone marrow cells ([2]; 0.825-6.6 μM) | TRAP-positive osteoclast cell number ([3]; 0.825 μM) | TRAP-positive osteoclast cell number ([3]; 1.65 μM) | TRAP-positive osteoclast cell number ([3]; 3.3 μM) | TRAP-positive osteoclast cell number ([3]; 6.6 μM) | Effect on osteoclast differentiation during differentiation of osteoclast precursors isolated from bone ([3]; 0.825-6.6 μM) | Cytotoxicity (MTT) (osteoblasts) | Cytotoxicity (MTT) (murine bone marrow cells) | Cytotoxicity (MTT) (peritoneal macrophages) | Cytotoxicity (MTT) [4] | Effect on activation of the transcription factor NF-κB by osteoclast differentiation factor (ODF) [5]
1 | CCCCCCCCCCCCCCCCCC(=O)NC(CO)COP(=O)([O-])OCC[N+](C)(C)C [CHJ-0013, N-stearoyl-O-phosphocholine-L-serine methylhydroxy] | inhibit osteoclast differentiation |  |  |  |  |  |  |  |  |  |  |  |  |  |  |  |  |  |  | 
2 | CCCCCCCCCCCCCCCCCC(=O)NC(CO)COP(=O)(O)OCC[N+](C)(C)C [CHJ-0014, N-stearoyl-O-phosphocholine-D-serine methylhydroxy] | inhibit osteoclast differentiation | 80±6.1 | 46±4.7 | 16±6.4 | inhibits differentiation of osteoclasts in co-culture of bone marrow cells and osteoblasts in a dose-dependent manner | 185±12.9 | 172+9.3 | 87+3.5 | 36+3.6 | inhibits osteoclast differentiation induced by ODF in bone marrow cells in a dose-dependent manner | 318±19.3 | 318±50.4 | 267±24 | 152±29.1 | inhibits osteoclast differentiation during differentiation of osteoclast precursors isolated from bone in a dose-dependent manner | did not show cytotoxicity | did not show cytotoxicity | did not show cytotoxicity | did not show cytotoxicity | suppress activation of the transcription factor NF-κB
